Results taken from ChEMBL document CHEMBL4052756, “α-Pyrone derivatives with cytotoxic activities, from the endophytic fungus Phoma sp. YN02-P-3” (Bioorg Med Chem Lett, 2017).

Tests used:
Format in all cases: functional, cell-based
HL-60 = experiment: Cytotoxic activity against human HL60 cells
HCT-116 = experiment: Cytotoxic activity against human HCT116 cells
PC-3 = experiment: Cytotoxic activity against human PC3 cells

Work on `COC(=O)/C=C/c1oc(=O)c(COC(C)=O)c(OC)c1COC(C)=O` yielded an IC50 (HL-60) of 0.52 µM, an IC50 (HCT-116) of 1.32 µM and an IC50 (PC-3) of 0.98 µM.

`COc1c(C)c(/C=C/C(=O)O)oc(=O)c1C` showed an IC50 (HL-60) of over 50 µM, an IC50 (HCT-116) of over 50 µM and an IC50 (PC-3) of over 50 µM.

Work on `COC(=O)/C=C/c1oc(=O)c(CO)c(OC)c1CO` yielded an IC50 (HL-60) of over 50 µM, an IC50 (HCT-116) of over 50 µM and an IC50 (PC-3) of over 50 µM.

Compound `COC(=O)/C=C/c1oc(=O)c(COC(C)=O)c(OC)c1CO` has an IC50 (HL-60) of 0.65 µM, an IC50 (HCT-116) of 2.31 µM and an IC50 (PC-3) of 1.09 µM.

In the case of `COc1c(C)c(/C=C/C(=O)O)oc(=O)c1CO`, the IC50 (HL-60) is reported as over 50 µM, the IC50 (HCT-116) is reported as over 50 µM and the IC50 (PC-3) is reported as over 50 µM.

With `COC(=O)C1C(c2oc(=O)c(CO)c(OC)c2CO)C(C(=O)OC)C1c1oc(=O)c(CO)c(OC)c1CO` (stereo not drawn) the IC50 (HL-60) was over 50 µM, the IC50 (HCT-116) was over 50 µM and the IC50 (PC-3) was over 50 µM.

`COC(=O)C1C(c2oc(=O)c(COC(C)=O)c(OC)c2COC(C)=O)C(C(=O)OC)C1c1oc(=O)c(COC(C)=O)c(OC)c1COC(C)=O` (stereo not drawn) showed an IC50 (HL-60) of 4.56 µM.

`COc1c(CO)c(/C=C/C(=O)O)oc(=O)c1CO` showed an IC50 (HL-60) of over 50 µM, an IC50 (HCT-116) of over 50 µM and an IC50 (PC-3) of over 50 µM.

Compound `COC(=O)/C=C/c1oc(=O)c(CO)c(OC)c1COC(C)=O` has an IC50 (HL-60) of 1.04 µM, an IC50 (HCT-116) of 9.84 µM and an IC50 (PC-3) of 5.9 µM.

With `O=c1[nH]cc(F)c(=O)[nH]1` [FLUOROURACIL] the IC50 (HL-60) was 2.8 µM, the IC50 (HCT-116) was 17 µM and the IC50 (PC-3) was 1.6 µM.
